From ChEMBL document CHEMBL6114955, “Probing into the plasma stability and microsomal stability of thiol-based prodrug derivatives: Using IYS-15, an HDAC inhibitor as the model thiol” (Bioorg Med Chem, 2025)

Legend:
[1] = Metabolic stability in human liver microsomes assessed as half life in presence of NADPH measured upto 60 mins in presence of 2.5 mM ABT cytochrome P450 inhibitor by LC-MS/MS analysis; format: ADME, Microsome; conditions: with ABT (cytochrome P450 inhibitor)
[2] = Metabolic stability in human liver microsomes assessed as half life in presence of NADPH measured upto 60 mins in presence of 10 uM sulfaphenazole by LC-MS/MS analysis; format: ADME, Microsome; conditions: with sulfaphenazole
[3] = Metabolic stability in human liver microsomes assessed as intrinsic clearance measured per mg of protein in presence of NADPH measured upto 60 mins in presence of 8 uM quinidine by LC-MS/MS analysis; format: ADME, Microsome; conditions: 1 h
[4] = Metabolic stability in human liver microsomes assessed as intrinsic clearance measured per mg of protein in presence of NADPH measured upto 60 mins in presence of 2 uM ticlopidine by LC-MS/MS analysis; format: ADME, Microsome; conditions: 1 h
[5] = Ratio of half life in human liver microsomes in presence of ABT to t1/2 in human liver microsomes absence of ABT; format: ADME, Microsome
[6] = Ratio of half life in human liver microsomes in presence of BNPP to t1/2 in human liver microsomes absence of BNPP; format: ADME, Microsome
[7] = Metabolic stability in human liver microsomes assessed as half life in presence of NADPH measured upto 60 mins in presence of 50 uM furafylline by LC-MS/MS analysis; format: ADME, Microsome; conditions: with furafylline
[8] = Metabolic stability in human liver microsomes assessed as half life in presence of NADPH measured upto 60 mins in presence of 2 uM ketoconazole by LC-MS/MS analysis; format: ADME, Microsome; conditions: with ketoconazole
[9] = Metabolic stability in human liver microsomes assessed as intrinsic clearance measured per mg of protein in presence of NADPH measured upto 60 mins in presence of 50 uM furafylline by LC-MS/MS analysis; format: ADME, Microsome; conditions: 1 h
[10] = Metabolic stability in human liver microsomes assessed as half life in presence of NADPH measured upto 60 mins in presence of 10 uM montelukast by LC-MS/MS analysis; format: ADME, Microsome; conditions: with montelukast
[11] = Metabolic stability in human liver microsomes assessed as half life in presence of NADPH measured upto 60 mins in presence of 5 mM BNPP carboxylesterase inhibitor by LC-MS/MS analysis; format: ADME, Microsome; conditions: with BNPP (carboxylesterase inhibitor)
[12] = Metabolic stability in human liver microsomes assessed as half life in presence of NADPH measured upto 60 mins in presence of 8 uM quinidine by LC-MS/MS analysis; format: ADME, Microsome; conditions: with quinidine
[13] = Metabolic stability in human liver microsomes assessed as half life in presence of NADPH measured upto 60 mins by LC-MS/MS analysis; format: ADME, Microsome
[14] = Metabolic stability in human liver microsomes assessed as half life in presence of NADPH measured upto 60 mins in presence of 2 uM ticlopidine by LC-MS/MS analysis; format: ADME, Microsome; conditions: with ticlopidine
[15] = Metabolic stability in human liver microsomes assessed as intrinsic clearance measured per mg of protein in presence of NADPH measured upto 60 mins in presence of 10 uM sulfaphenazole by LC-MS/MS analysis; format: ADME, Microsome; conditions: 1 h
[16] = Metabolic stability in human liver microsomes assessed as intrinsic clearance measured per mg of protein in presence of NADPH measured upto 60 mins in presence of 2 uM ketoconazole by LC-MS/MS analysis; format: ADME, Microsome; conditions: 1 h
[17] = Stability in human plasma assessed as half life at pH 7.4 measured upto 5 hrs by LC-MS/MS analysis; format: ADME, cell-free
[18] = Metabolic stability in human liver microsomes assessed as intrinsic clearance measured per mg of protein in presence of NADPH measured upto 60 mins in presence of 10 uM montelukast by LC-MS/MS analysis; format: ADME, Microsome; conditions: 1 h

half-life [1] [min]	half-life [2] [min]	CLint [3] [µL/min/mg]	CLint [4] [µL/min/mg]	Ratio [5]	Ratio [6]	half-life [7] [min]	half-life [8] [min]	CLint [9] [µL/min/mg]	half-life [10] [min]	half-life [11] [min]	half-life [12] [min]	half-life [13] [min]	half-life [14] [min]	CLint [15] [µL/min/mg]	CLint [16] [µL/min/mg]	half-life [17] [min]	CLint [18] [µL/min/mg]	Structure (SMILES)
114	2.94	675	737	26.54	5.32	2.98	5.99	708	5.76	22.8	3.11	3.09	2.85	716	351	> 300	365	CN(C)C(=O)SCCCCCCC(=O)Nc1nc(-c2ccc(F)cc2)cs1
81.1	1.53	1840	1520	9.6	2.03	1.52	31.5	1380	1.25	17.1	1.15	1.27	1.39	1370	67	> 300	1680	CC(C)N(C(=O)SCCCCCCC(=O)Nc1nc(-c2ccc(F)cc2)cs1)C(C)C
65.8	9.66	243	260	7.71	9.53	8.31	22.5	253	14	81.4	8.68	6.81	8.09	218	93	> 300	150	CC(=O)NCSCCCCCCC(=O)Nc1nc(-c2ccc(F)cc2)cs1
–	–	–	–	–	–	–	–	–	–	–	–	–	–	–	–	179	–	CCCCC(=O)SCCCCCCC(=O)Nc1nc(-c2ccc(F)cc2)cs1
0.85	–	–	–	1.09	35.87	–	–	–	–	28.2	–	0.79	–	–	–	> 300	–	COC(=O)SCCCCCCC(=O)Nc1nc(-c2ccc(F)cc2)cs1
0.56	–	–	–	0.48	7.77	–	–	–	–	9.11	–	1.17	–	–	–	160	–	CCC(=O)SCCCCCCC(=O)Nc1nc(-c2ccc(F)cc2)cs1
16.9	–	–	–	2.78	1.66	–	–	–	–	10.1	–	6.08	–	–	–	> 300	–	CCCCSSCCCCCCC(=O)Nc1nc(-c2ccc(F)cc2)cs1
211	1.41	1470	1520	101.23	13.27	1.41	28.5	1490	1.84	27.6	1.43	1.75	1.38	1490	74	> 300	1140	CC(C)(C)C(=O)NCSCCCCCCC(=O)Nc1nc(-c2ccc(F)cc2)cs1
0.53	–	–	–	0.93	10.1	–	–	–	–	5.78	–	0.57	–	–	–	151	–	CC(=O)SCCCCCCC(=O)Nc1nc(-c2ccc(F)cc2)cs1
–	–	–	–	–	–	–	–	–	–	–	–	11.9	–	–	–	> 300	–	CCCCCCSSCCCCCCC(=O)Nc1nc(-c2ccc(F)cc2)cs1
–	–	–	–	–	–	–	–	–	–	–	–	4.11	–	–	–	> 300	–	CC(C)(C)C(=O)SCCCCCCC(=O)Nc1nc(-c2ccc(F)cc2)cs1
26.7	–	–	–	2.13	1.26	–	–	–	–	15.8	–	12.5	–	–	–	> 300	–	CC(C)(C)SSCCCCCCC(=O)Nc1nc(-c2ccc(F)cc2)cs1
68.3	7.61	288	283	10.62	8.53	7.1	18.2	296	10.4	54.9	7.28	4.81	7.42	276	115	> 300	203	CNC(=O)SCCCCCCC(=O)Nc1nc(-c2ccc(F)cc2)cs1
–	–	–	–	–	–	–	–	–	–	–	–	5.5	–	–	–	> 300	–	CCCCCNC(=O)SCCCCCCC(=O)Nc1nc(-c2ccc(F)cc2)cs1
–	–	–	–	–	–	–	–	–	–	–	–	18.9	–	–	–	> 300	–	O=C(CCCCCCSSC1CCCCC1)Nc1nc(-c2ccc(F)cc2)cs1

Second part, the compound before the results:

Structure (SMILES)	half-life [1] [min]	half-life [2] [min]	CLint [3] [µL/min/mg]	CLint [4] [µL/min/mg]	Ratio [5]	Ratio [6]	half-life [7] [min]	half-life [8] [min]	CLint [9] [µL/min/mg]	half-life [10] [min]	half-life [11] [min]	half-life [12] [min]	half-life [13] [min]	half-life [14] [min]	CLint [15] [µL/min/mg]	CLint [16] [µL/min/mg]	half-life [17] [min]	CLint [18] [µL/min/mg]
O=C(CCCCCCSC(=O)N1CCCC1)Nc1nc(-c2ccc(F)cc2)cs1	–	–	–	–	–	–	–	–	–	–	–	–	11.4	–	–	–	> 300	–
O=C(CCCCCCSP(=O)(c1ccccc1)c1ccccc1)Nc1nc(-c2ccc(F)cc2)cs1	34.2	–	–	–	37.24	26.7	–	–	–	–	24.5	–	0.92	–	–	–	> 300	–
COc1ccc(C(=O)SCCCCCCC(=O)Nc2nc(-c3ccc(F)cc3)cs2)cc1	–	–	–	–	–	–	–	–	–	–	–	–	10.8	–	–	–	> 300	–
O=C(CCCCCCSC(=O)Cc1ccccc1)Nc1nc(-c2ccc(F)cc2)cs1	–	–	–	–	–	–	–	–	–	–	–	–	2.14	–	–	–	> 160	–
O=C(CCCCCCSC(=O)c1ccc2c(c1)OCCO2)Nc1nc(-c2ccc(F)cc2)cs1	–	–	–	–	–	–	–	–	–	–	–	–	11.4	–	–	–	> 300	–
O=C(CCCCCCSC(=O)c1ccccc1)Nc1nc(-c2ccc(F)cc2)cs1	5.78	–	–	–	0.74	4.63	–	–	–	–	36.3	–	2.34	–	–	–	> 300	–
O=C(CCCCCCSC(=O)c1ccc(C(F)(F)F)cc1)Nc1nc(-c2ccc(F)cc2)cs1	3.82	–	–	–	0.66	2.52	–	–	–	–	14.5	–	5.77	–	–	–	> 300	–
O=C(CCCCCCSSCCCCCCC(=O)Nc1nc(-c2ccc(F)cc2)cs1)Nc1nc(-c2ccc(F)cc2)cs1	–	–	–	–	–	–	–	–	–	–	–	–	–	–	–	–	247	–
COP(=O)(OC)SCCCCCCC(=O)Nc1nc(-c2ccc(F)cc2)cs1	44	–	–	–	4.46	16.8	–	–	–	–	165	–	9.85	–	–	–	> 300	–
CCOP(=O)(OCC)SCCCCCCC(=O)Nc1nc(-c2ccc(F)cc2)cs1	24.5	–	–	–	8.2	18.22	–	–	–	–	54.5	–	2.14	–	–	–	> 300	–
